Measured values as given in patent US9738634B2, “Heterocyclic amide compound and herbicide” (SYNGENTA PARTICIPATIONS AG, priority 2013, dated 2017).

Key:
Type in all cases: in vivo
barnyard grass [1] = assay: Test Example 1: weedkilling efficacy, preemergent weed treatment in the submerged state; A: barnyard grass; settings: treatment dosage 252 g/ha
Procedure, shortened: (§1)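 Submerged pre-emergence treatment, water-surface application of compound emulsion at g/ha dosages; 4 cm flooded alluvial soil, weeds sown and 2.5-leaf rice transplanted same day. Rated after 3 weeks, greenhouse.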

bulrush [2] = assay: Test Example 1: weedkilling efficacy, preemergent weed treatment in the submerged state; B: bulrush; settings: treatment dosage 252 g/ha
Procedure, shortened: as §1

oval-leafed pondweed [3] = assay: Test Example 1: weedkilling efficacy, preemergent weed treatment in the submerged state; C: oval-leafed pondweed; settings: treatment dosage 252 g/ha
Procedure, shortened: as §1

transplanted rice = assay: Test Example 1: preemergent weed treatment in the submerged state, effect on crop; a: transplanted rice; settings: treatment dosage 252 g/ha
Procedure, shortened: as §1

barnyard grass [4] = assay: Test Example 2: weedkilling efficacy, growth period weed treatment in the submerged state; A: barnyard grass; settings: treatment dosage 252 g/ha
Procedure, shortened: (§2)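 Seedlings at 1-2 leaves in 4 cm-deep submerged alluvial soil received emulsion formulations on the water surface, dosed per hectare; effects were judged 3 weeks on.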

bulrush [5] = assay: Test Example 2: weedkilling efficacy, growth period weed treatment in the submerged state; B: bulrush; settings: treatment dosage 252 g/ha
Procedure, shortened: as §2

oval-leafed pondweed [6] = assay: Test Example 2: weedkilling efficacy, growth period weed treatment in the submerged state; C: oval-leafed pondweed; settings: treatment dosage 252 g/ha
Procedure, shortened: as §2

crabgrass [7] = assay: Test Example 3: weedkilling efficacy through soil treatment; D: crabgrass; settings: treatment dosage 315 g/ha
Procedure, shortened: (§3)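 Crop and weed responses were judged three weeks after a uniform surface spray of the water-diluted emulsion at the given g/ha rate. Seeds sat beneath about 1.5 cm of sterilized diluvial soil, and boxes stood in a greenhouse at 25 to 30° C.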

green foxtail [8] = assay: Test Example 3: weedkilling efficacy through soil treatment; E: green foxtail; settings: treatment dosage 315 g/ha
Procedure, shortened: as §3

wild oat = assay: Test Example 3: weedkilling efficacy through soil treatment; G: wild oat; settings: treatment dosage 315 g/ha
Procedure, shortened: as §3

black-grass [9] = assay: Test Example 3: weedkilling efficacy through soil treatment; H: black-grass; settings: treatment dosage 315 g/ha
Procedure, shortened: as §3

Italian ryegrass [10] = assay: Test Example 3: weedkilling efficacy through soil treatment; I: Italian ryegrass; settings: treatment dosage 315 g/ha
Procedure, shortened: as §3

Indian mallow [11] = assay: Test Example 3: weedkilling efficacy through soil treatment; K: Indian mallow; settings: treatment dosage 315 g/ha
Procedure, shortened: as §3

redroot pigweed [12] = assay: Test Example 3: weedkilling efficacy through soil treatment; L: redroot pigweed; settings: treatment dosage 315 g/ha
Procedure, shortened: as §3

fig-leafed goosefoot [13] = assay: Test Example 3: weedkilling efficacy through soil treatment; M: fig-leafed goosefoot; settings: treatment dosage 315 g/ha
Procedure, shortened: as §3

chickweed [14] = assay: Test Example 3: weedkilling efficacy through soil treatment; N: chickweed; settings: treatment dosage 315 g/ha
Procedure, shortened: as §3

birds-eye speedwell [15] = assay: Test Example 3: weedkilling efficacy through soil treatment; p: birds-eye speedwell; settings: treatment dosage 315 g/ha
Procedure, shortened: as §3

directly sown rice [16] = assay: Test Example 3: soil treatment, effect on crop; b: directly sown rice; settings: treatment dosage 315 g/ha
Procedure, shortened: as §3

corn [17] = assay: Test Example 3: soil treatment, effect on crop; c: corn; settings: treatment dosage 315 g/ha
Procedure, shortened: as §3

soybean [18] = assay: Test Example 3: soil treatment, effect on crop; d: soybean; settings: treatment dosage 315 g/ha
Procedure, shortened: as §3

wheat [19] = assay: Test Example 3: soil treatment, effect on crop; e: wheat; settings: treatment dosage 315 g/ha
Procedure, shortened: as §3

beet [20] = assay: Test Example 3: soil treatment, effect on crop; f: beet; settings: treatment dosage 315 g/ha
Procedure, shortened: as §3

crabgrass [21] = assay: Test Example 4: weedkilling efficacy by foliar treatment; D: crabgrass; settings: treatment dosage 315 g/ha
Procedure, shortened: (§4)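 Seeds are spot-sown into sterilized diluvial soil and covered with about 1.5 cm of soil. After 14 days' greenhouse growth at 25 to 30° C, plants are sprayed on stems and leaves with diluted emulsion at the stated g/ha rate, then scored at 3 weeks.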

green foxtail [22] = assay: Test Example 4: weedkilling efficacy by foliar treatment; E: green foxtail; settings: treatment dosage 315 g/ha
Procedure, shortened: as §4

black-grass [23] = assay: Test Example 4: weedkilling efficacy by foliar treatment; H: black-grass; settings: treatment dosage 315 g/ha
Procedure, shortened: as §4

Italian ryegrass [24] = assay: Test Example 4: weedkilling efficacy by foliar treatment; I: Italian ryegrass; settings: treatment dosage 315 g/ha
Procedure, shortened: as §4

Indian mallow [25] = assay: Test Example 4: weedkilling efficacy by foliar treatment; K: Indian mallow; settings: treatment dosage 315 g/ha
Procedure, shortened: as §4

redroot pigweed [26] = assay: Test Example 4: weedkilling efficacy by foliar treatment; L: redroot pigweed; settings: treatment dosage 315 g/ha
Procedure, shortened: as §4

fig-leafed goosefoot [27] = assay: Test Example 4: weedkilling efficacy by foliar treatment; M: fig-leafed goosefoot; settings: treatment dosage 315 g/ha
Procedure, shortened: as §4

chickweed [28] = assay: Test Example 4: weedkilling efficacy by foliar treatment; N: chickweed; settings: treatment dosage 315 g/ha
Procedure, shortened: as §4

catchweed = assay: Test Example 4: weedkilling efficacy by foliar treatment; O: catchweed; settings: treatment dosage 315 g/ha
Procedure, shortened: as §4

birds-eye speedwell [29] = assay: Test Example 4: weedkilling efficacy by foliar treatment; p: birds-eye speedwell; settings: treatment dosage 315 g/ha
Procedure, shortened: as §4

directly sown rice [30] = assay: Test Example 4: foliar treatment, effect on crop; b: directly sown rice; settings: treatment dosage 315 g/ha
Procedure, shortened: as §4

corn [31] = assay: Test Example 4: foliar treatment, effect on crop; c: corn; settings: treatment dosage 315 g/ha
Procedure, shortened: as §4

soybean [32] = assay: Test Example 4: foliar treatment, effect on crop; d: soybean; settings: treatment dosage 315 g/ha
Procedure, shortened: as §4

wheat [33] = assay: Test Example 4: foliar treatment, effect on crop; e: wheat; settings: treatment dosage 315 g/ha
Procedure, shortened: as §4

beet [34] = assay: Test Example 4: foliar treatment, effect on crop; f: beet; settings: treatment dosage 315 g/ha
Procedure, shortened: as §4

Row | Structure (SMILES) | A (barnyard grass) weedkilling efficacy grade (barnyard grass [1]) | B (bulrush) weedkilling efficacy grade (bulrush [2]) | C (oval-leafed pondweed) weedkilling efficacy grade (oval-leafed pondweed [3]) | a (transplanted rice) effect on crop grade (transplanted rice) | A (barnyard grass) weedkilling efficacy grade (barnyard grass [4]) | B (bulrush) weedkilling efficacy grade (bulrush [5]) | C (oval-leafed pondweed) weedkilling efficacy grade (oval-leafed pondweed [6]) | D (crabgrass) weedkilling efficacy grade (crabgrass [7]) | E (green foxtail) weedkilling efficacy grade (green foxtail [8]) | G (wild oat) weedkilling efficacy grade (wild oat) | H (black-grass) weedkilling efficacy grade (black-grass [9]) | I (Italian ryegrass) weedkilling efficacy grade (Italian ryegrass [10]) | K (Indian mallow) weedkilling efficacy grade (Indian mallow [11]) | L (redroot pigweed) weedkilling efficacy grade (redroot pigweed [12]) | M (fig-leafed goosefoot) weedkilling efficacy grade (fig-leafed goosefoot [13]) | N (chickweed) weedkilling efficacy grade (chickweed [14]) | P (birds-eye speedwell) weedkilling efficacy grade (birds-eye speedwell [15]) | b (directly sown rice) effect on crop grade (directly sown rice [16]) | c (corn) effect on crop grade (corn [17]) | d (soybean) effect on crop grade (soybean [18]) | further results
1 | CC1=C(c2ccsc2)C(=O)N(C(C)(C)C(=O)Nc2nc(C(C)C)ns2)CO1 [B-1-03] | 5 (weed kill ratio 90% or more, (practically complete withering)) | 5 (weed kill ratio 90% or more, (practically complete withering)) | 5 (weed kill ratio 90% or more, (practically complete withering)) | 3 (weed kill ratio 40% or more, less than 70%) | 5 (weed kill ratio 90% or more, (practically complete withering)) | 5 (weed kill ratio 90% or more, (practically complete withering)) | 5 (weed kill ratio 90% or more, (practically complete withering)) | 5 (weed kill ratio 90% or more, (practically complete withering)) | 5 (weed kill ratio 90% or more, (practically complete withering)) | 5 (weed kill ratio 90% or more, (practically complete withering)) | 5 (weed kill ratio 90% or more, (practically complete withering)) | 5 (weed kill ratio 90% or more, (practically complete withering)) | 4 (weed kill ratio 70% or more, less than 90%) | 4 (weed kill ratio 70% or more, less than 90%) | 5 (weed kill ratio 90% or more, (practically complete withering)) | 3 (weed kill ratio 40% or more, less than 70%) | 5 (weed kill ratio 90% or more, (practically complete withering)) | 5 (weed kill ratio 90% or more, (practically complete withering)) | 0 (weed kill ratio 5% or less (practically no effect)) | 0 (weed kill ratio 5% or less (practically no effect)) | e (wheat) effect on crop grade (wheat [19]): 3 (weed kill ratio 40% or more, less than 70%); f (beet) effect on crop grade (beet [20]): 3 (weed kill ratio 40% or more, less than 70%); D (crabgrass) weedkilling efficacy grade (crabgrass [21]): 4 (weed kill ratio 70% or more, less than 90%); E (green foxtail) weedkilling efficacy grade (green foxtail [22]): 4 (weed kill ratio 70% or more, less than 90%); H (black-grass) weedkilling efficacy grade (black-grass [23]): 5 (weed kill ratio 90% or more, (practically complete withering)); I (Italian ryegrass) weedkilling efficacy grade (Italian ryegrass [24]): 5 (weed kill ratio 90% or more, (practically complete withering)); K (Indian mallow) weedkilling efficacy grade (Indian mallow [25]): 4 (weed kill ratio 70% or more, less than 90%); L (redroot pigweed) weedkilling efficacy grade (redroot pigweed [26]): 4 (weed kill ratio 70% or more, less than 90%); M (fig-leafed goosefoot) weedkilling efficacy grade (fig-leafed goosefoot [27]): 5 (weed kill ratio 90% or more, (practically complete withering)); N (chickweed) weedkilling efficacy grade (chickweed [28]): 3 (weed kill ratio 40% or more, less than 70%); O (catchweed) weedkilling efficacy grade (catchweed): 3 (weed kill ratio 40% or more, less than 70%); P (birds-eye speedwell) weedkilling efficacy grade (birds-eye speedwell [29]): 4 (weed kill ratio 70% or more, less than 90%); b (directly sown rice) effect on crop grade (directly sown rice [30]): 4 (weed kill ratio 70% or more, less than 90%); c (corn) effect on crop grade (corn [31]): 2 (weed kill ratio 20% or more, less than 40%); d (soybean) effect on crop grade (soybean [32]): 4 (weed kill ratio 70% or more, less than 90%); e (wheat) effect on crop grade (wheat [33]): 0 (weed kill ratio 5% or less (practically no effect)); f (beet) effect on crop grade (beet [34]): 3 (weed kill ratio 40% or more, less than 70%)
2 | COc1nsc(NC(=O)C(C)(C)N2COC(C)=C(c3ccsc3)C2=O)n1 [B-1-04] | 5 (weed kill ratio 90% or more, (practically complete withering)) | 5 (weed kill ratio 90% or more, (practically complete withering)) | 5 (weed kill ratio 90% or more, (practically complete withering)) | 0 (weed kill ratio 5% or less (practically no effect)) | 5 (weed kill ratio 90% or more, (practically complete withering)) | 5 (weed kill ratio 90% or more, (practically complete withering)) | 5 (weed kill ratio 90% or more, (practically complete withering)) | 5 (weed kill ratio 90% or more, (practically complete withering)) | 5 (weed kill ratio 90% or more, (practically complete withering)) | 4 (weed kill ratio 70% or more, less than 90%) | 5 (weed kill ratio 90% or more, (practically complete withering)) | 5 (weed kill ratio 90% or more, (practically complete withering)) | 3 (weed kill ratio 40% or more, less than 70%) | 4 (weed kill ratio 70% or more, less than 90%) | 5 (weed kill ratio 90% or more, (practically complete withering)) | 4 (weed kill ratio 70% or more, less than 90%) | 5 (weed kill ratio 90% or more, (practically complete withering)) | 4 (weed kill ratio 70% or more, less than 90%) | 0 (weed kill ratio 5% or less (practically no effect)) | 0 (weed kill ratio 5% or less (practically no effect)) | e (wheat) effect on crop grade (wheat [19]): 0 (weed kill ratio 5% or less (practically no effect)); f (beet) effect on crop grade (beet [20]): 4 (weed kill ratio 70% or more, less than 90%); D (crabgrass) weedkilling efficacy grade (crabgrass [21]): 4 (weed kill ratio 70% or more, less than 90%); E (green foxtail) weedkilling efficacy grade (green foxtail [22]): 4 (weed kill ratio 70% or more, less than 90%); H (black-grass) weedkilling efficacy grade (black-grass [23]): 5 (weed kill ratio 90% or more, (practically complete withering)); I (Italian ryegrass) weedkilling efficacy grade (Italian ryegrass [24]): 5 (weed kill ratio 90% or more, (practically complete withering)); K (Indian mallow) weedkilling efficacy grade (Indian mallow [25]): 4 (weed kill ratio 70% or more, less than 90%); L (redroot pigweed) weedkilling efficacy grade (redroot pigweed [26]): 4 (weed kill ratio 70% or more, less than 90%); M (fig-leafed goosefoot) weedkilling efficacy grade (fig-leafed goosefoot [27]): 5 (weed kill ratio 90% or more, (practically complete withering)); N (chickweed) weedkilling efficacy grade (chickweed [28]): 3 (weed kill ratio 40% or more, less than 70%); O (catchweed) weedkilling efficacy grade (catchweed): 4 (weed kill ratio 70% or more, less than 90%); P (birds-eye speedwell) weedkilling efficacy grade (birds-eye speedwell [29]): 3 (weed kill ratio 40% or more, less than 70%); b (directly sown rice) effect on crop grade (directly sown rice [30]): 4 (weed kill ratio 70% or more, less than 90%); c (corn) effect on crop grade (corn [31]): 3 (weed kill ratio 40% or more, less than 70%); d (soybean) effect on crop grade (soybean [32]): 0 (weed kill ratio 5% or less (practically no effect)); e (wheat) effect on crop grade (wheat [33]): 0 (weed kill ratio 5% or less (practically no effect)); f (beet) effect on crop grade (beet [34]): 5 (weed kill ratio 90% or more, (practically complete withering))
